{"source": "patent US4801613A", "about": "“Bradykinin antagonist peptides” (Nova Technology Limited Partnership, priority 1987, dated 1989)", "key": {"kininases": {"tested_on": "kininases", "settings": "rat, in vivo"}, "[1]": {"tested_on": "isolated guinea pig ileum", "type": "cell-based", "settings": "for pA2/GPI: isolated guinea pig ileum, vs double ED50 dose of bradykinin, Schild", "experimental": "(§1) The bradykinin antagonists were assayed on isolated rat uterus in natural or induced estrus and on guinea pig ileum, according to the commonly accepted assay methods for bradykinin and related kinins as described by Trautschold (Handbook of Expt. Pharmacol. Vol. 25, Springer Verlag, pp 53-55, 1970) for inhibition of the myotropic activity of bradykinin. The inhibition potencies, as determined according to the commonly accepted manner described by Schild for antagonists of biologically active compounds (Br. J. Pharmacol. 2:189, 1947), are determined on isolated rat uterus (RUT) and isolated guinea pig ileum (GPI). In the assays, a dose-response curve is determined for the reference substance bradykinin. The dose of bradykinin which produced a half maximal contraction of tissue is the ED50 dose. An amount of bradykinin equivalent to twice the ED50 dose is administered to the tissue 30 seconds after the start of incubation of the tissue with a dose of antagonist. Doses of antagonist are increased in this protocol until pre-incubation with a dose of antagonist reduces the contraction in response to the double ED50 dose of bradykinin to response of a single ED50 dose of bradykinin. The pA2 value represents the negative logarithm of the molar concentration of antagonist necessary to reduce the response of a double ED50 dose of bradykinin to that of an ED50 dose. One unit of pA2 value represents an order of magnitude change in potency. For comparison, the negative log of the dose of BK, the dose which causes half maximal contraction of the tissues, is commonly known as the pD2 value. The pD2 value for bradykinin is 7.9 on the rat uterus and 7.4 on the guinea pig ileum.\n(§2) In each case, as shown, the BK-related antagonists inhibited contractions produced by BK-related agonists, but had no effect on the non-kinin myotropic peptide substances. The inhibition potencies are listed as pA2 values as described above."}, "guinea pig ileum": {"tested_on": "guinea pig ileum", "type": "cell-based", "experimental": "as §1, §2"}, "isolated rat uterus": {"tested_on": "isolated rat uterus", "type": "cell-based", "experimental": "as §1"}, "[2]": {"settings": "isolated rat uterus, vs double ED50 dose of bradykinin, Schild"}}, "note": "Where two headings read alike, the source gives them in different places. Non-standard residues stand in square brackets, D forms with d. Residues, ends and D or L forms follow the SMILES beside them. 2Thi = N[C@@H](Cc1cccs1)C(=O)O"}
{"compound": "N=C(N)NCCC[C@@H](N)C(=O)N[C@@H](CCCNC(=N)N)C(=O)N1CCC[C@H]1C(=O)N1CCC[C@H]1C(=O)NCC(=O)N[C@@H](Cc1ccccc1)C(=O)N[C@@H](CO)C(=O)N1CCC[C@H]1C(=O)N[C@@H](Cc1ccccc1)C(=O)N[C@@H](CCCNC(=N)N)C(=O)O", "note": "[DArg--BK] (H-[dR]RPPGFSPFR-OH)", "values": [{"measurement": "% DESTRUCTION", "setting": "kininases", "value": 92, "unit": "%"}]}
{"compound": "N=C(N)NCCC[C@H](NC(=O)[C@H](Cc1ccccc1)NC(=O)[C@@H]1CCCN1C(=O)[C@H](CO)NC(=O)[C@H](Cc1ccccc1)NC(=O)CNC(=O)[C@@H]1CCCN1C(=O)[C@@H]1CCCN1C(=O)[C@H](CCCNC(=N)N)NC(=O)[C@H](N)CCCCN)C(=O)O", "note": "[DLys--BK]", "values": [{"measurement": "% DESTRUCTION", "setting": "kininases", "value": 89, "unit": "%"}]}
{"compound": "N=C(N)NCCC[C@H](NC(=O)[C@H](Cc1ccccc1)NC(=O)[C@@H](Cc1ccccc1)NC(=O)[C@H](CO)NC(=O)[C@H](Cc1ccccc1)NC(=O)CNC(=O)[C@@H]1CCCN1C(=O)[C@@H]1CCCN1C(=O)[C@@H](N)CCCNC(=N)N)C(=O)O", "note": "[Example 1, Arg-Pro-Pro-Gly-Phe-Ser-DPhe-Phe-Arg] (H-RPPGFS[dF]FR-OH)", "values": [{"measurement": "GUINEA PIG ILEUM BK (pA2)", "setting": "[1]", "value": 5.0}, {"measurement": "GUINEA PIG ILEUM KAL (pA2)", "setting": "guinea pig ileum", "value": 5.6}, {"measurement": "GUINEA PIG ILEUM MK--BK (pA2)", "setting": "guinea pig ileum", "value": 6.0}, {"measurement": "RUT AG = agonist potency relative to BK = 100", "setting": "isolated rat uterus", "value": 1, "unit": "%"}]}
{"compound": "N=C(N)NCCC[C@@H](N)C(=O)N[C@@H](CCCNC(=N)N)C(=O)N1CCC[C@H]1C(=O)N1CCC[C@H]1C(=O)NCC(=O)N[C@@H](Cc1ccccc1)C(=O)N[C@@H](CO)C(=O)N[C@H](Cc1ccccc1)C(=O)N[C@@H](Cc1ccccc1)C(=O)N[C@@H](CCCNC(=N)N)C(=O)O", "note": "[Example 10, DArg-Arg-Pro-Pro-Gly-Phe-Ser-DPhe-Phe-Arg]", "values": [{"measurement": "GPI pA2", "setting": "[1]", "value": 5.0}, {"measurement": "GUINEA PIG ILEUM BK (pA2)", "setting": "[1]", "value": 5.6}, {"measurement": "GUINEA PIG ILEUM KAL (pA2)", "setting": "guinea pig ileum; agonist kallidin (Lys-BK)", "value": 6.0}, {"measurement": "GUINEA PIG ILEUM MK--BK (pA2)", "setting": "guinea pig ileum; agonist methionyl-lysyl-BK", "value": 6.3}, {"measurement": "RUT AG = agonist potency relative to BK = 100", "setting": "isolated rat uterus", "value": 0.1, "unit": "%"}]}
{"compound": "N=C(N)NCCC[C@@H](N)C(=O)N[C@@H](CCCNC(=N)N)C(=O)N1CCC[C@H]1C(=O)N1CCC[C@H]1C(=O)NCC(=O)N[C@@H](Cc1cccs1)C(=O)N[C@@H](CO)C(=O)N[C@H](Cc1ccccc1)C(=O)N[C@@H](Cc1cccs1)C(=O)N[C@@H](CCCNC(=N)N)C(=O)O", "note": "[Example 15, DArg-Arg-Pro-Pro-Gly-Thi-Ser-DPhe-Thi-Arg] (H-[dR]RPPG[2Thi]S[dF][2Thi]R-OH)", "values": [{"measurement": "GUINEA PIG ILEUM BK (pA2)", "setting": "[1]", "value": 6.1}, {"measurement": "GUINEA PIG ILEUM KAL (pA2)", "setting": "guinea pig ileum", "value": 6.7}, {"measurement": "GUINEA PIG ILEUM MK--BK (pA2)", "setting": "guinea pig ileum", "value": 6.4}, {"measurement": "RUT pA2", "setting": "isolated rat uterus", "value": 5.2}, {"measurement": "pA2/RUT", "setting": "isolated rat uterus", "value": 5.5}]}
{"compound": "NCCCC[C@H](N)C(=O)N[C@@H](CCCN=C(N)N)C(=O)N1CCC[C@H]1C(=O)N1CCC[C@H]1C(=O)NCC(=O)N[C@@H](Cc1ccccc1)C(=O)N[C@@H](CO)C(=O)N1CCC[C@H]1C(=O)N[C@@H](Cc1ccccc1)C(=O)N[C@@H](CCCN=C(N)N)C(=O)O", "note": "[Lys--BK]", "values": [{"measurement": "% DESTRUCTION", "setting": "kininases", "value": 95, "unit": "%"}]}
{"compound": "N=C(N)NCCC[C@H](NC(=O)[C@H](Cc1ccccc1)NC(=O)[C@@H]1CCCN1C(=O)[C@H](CO)NC(=O)[C@H](Cc1ccccc1)NC(=O)CNC(=O)[C@@H]1CCCN1C(=O)[C@@H]1CCCN1C(=O)[C@H](CCCNC(=N)N)NC(=O)[C@H](CCCCN)NC(=O)[C@@H](N)CCCCN)C(=O)O", "note": "[Lys--Lys--BK]", "values": [{"measurement": "% DESTRUCTION", "setting": "kininases", "value": 0, "unit": "%"}]}
{"compound": "Arg-Pro-Pro-Gly-Phe-DPhe-CDF-Phe-Arg [Example 5]", "values": [{"measurement": "pA2/GPI", "setting": "[1]", "value": 5.8}, {"measurement": "pA2/RUT", "setting": "isolated rat uterus; [2]", "value": 4.9}]}
{"compound": "Arg-Pro-Pro-Gly-Phe-Ser-DPal-Phe-Arg [Example 3]", "values": [{"measurement": "pA2/GPI", "setting": "[1]", "value": 4.8}, {"measurement": "pA2/RUT", "setting": "isolated rat uterus; [2]", "value": 5.0}]}
